# Experimental data as given in ChEMBL document CHEMBL1125956, “A new potent inhibitor for angiotensin converting enzyme: (R,S)-captopril-F3” (Bioorg Med Chem Lett, 1991).
# Biological target: T1, Angiotensin-converting enzyme (Oryctolagus cuniculus, UniProt P12822)
# T1 sequence (P12822 whole entry): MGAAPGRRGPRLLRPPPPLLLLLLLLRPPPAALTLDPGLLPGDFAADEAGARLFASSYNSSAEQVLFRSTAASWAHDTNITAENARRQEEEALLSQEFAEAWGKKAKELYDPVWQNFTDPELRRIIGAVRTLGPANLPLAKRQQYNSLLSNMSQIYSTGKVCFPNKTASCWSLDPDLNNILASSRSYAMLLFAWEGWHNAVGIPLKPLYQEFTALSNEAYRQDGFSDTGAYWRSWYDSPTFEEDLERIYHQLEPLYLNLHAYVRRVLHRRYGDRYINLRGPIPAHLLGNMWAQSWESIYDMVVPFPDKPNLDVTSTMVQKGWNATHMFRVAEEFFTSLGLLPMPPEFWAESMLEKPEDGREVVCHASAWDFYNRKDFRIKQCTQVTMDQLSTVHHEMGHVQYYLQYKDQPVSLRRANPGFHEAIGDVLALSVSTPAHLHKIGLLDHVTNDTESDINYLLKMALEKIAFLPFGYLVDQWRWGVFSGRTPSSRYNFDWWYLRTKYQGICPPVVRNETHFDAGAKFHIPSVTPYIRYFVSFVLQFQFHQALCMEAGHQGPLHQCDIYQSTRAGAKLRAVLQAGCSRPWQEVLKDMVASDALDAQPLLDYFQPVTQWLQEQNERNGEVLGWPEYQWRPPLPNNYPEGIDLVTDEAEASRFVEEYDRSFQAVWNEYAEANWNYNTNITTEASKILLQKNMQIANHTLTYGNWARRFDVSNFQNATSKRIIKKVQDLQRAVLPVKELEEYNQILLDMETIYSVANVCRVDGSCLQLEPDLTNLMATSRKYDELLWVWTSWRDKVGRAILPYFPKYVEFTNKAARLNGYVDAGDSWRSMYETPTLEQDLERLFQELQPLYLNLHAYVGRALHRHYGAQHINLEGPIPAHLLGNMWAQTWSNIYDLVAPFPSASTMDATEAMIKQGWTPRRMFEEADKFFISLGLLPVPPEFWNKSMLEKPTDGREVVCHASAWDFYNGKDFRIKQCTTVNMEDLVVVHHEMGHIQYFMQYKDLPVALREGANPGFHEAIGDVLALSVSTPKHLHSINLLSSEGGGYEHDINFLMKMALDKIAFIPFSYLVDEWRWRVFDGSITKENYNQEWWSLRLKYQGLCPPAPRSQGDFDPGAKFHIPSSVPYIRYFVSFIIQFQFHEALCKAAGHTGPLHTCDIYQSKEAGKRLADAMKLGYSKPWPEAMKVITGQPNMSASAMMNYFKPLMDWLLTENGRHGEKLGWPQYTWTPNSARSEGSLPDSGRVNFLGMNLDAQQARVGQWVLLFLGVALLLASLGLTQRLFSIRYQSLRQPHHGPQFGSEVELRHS
# Assay: In vitro inhibitory activity was evaluated against angiotensin converting enzyme from rabbit in bovine buffered base
row,Structure (SMILES),IC50
1,O=C(O)[C@@H]1CCCN1C(=O)[C@H](CS)C(F)(F)F,480 nM
2,O=C(O)[C@@H]1CCCN1C(=O)[C@@H](CS)C(F)(F)F,0.29 nM
